Source: ChEMBL document CHEMBL4393691, “Design, synthesis and antitumor evaluation of novel celastrol derivatives” (Eur J Med Chem, 2019)
Calls of active or inactive are those of the source. No cut-off for these calls is given here.

Legend:
A549 [1] = experiment: Induction of apoptosis in human A549 cells incubated for 48 hrs by Hoechst 33342 staining-based fluorescence microscopy; assay type: functional, cell-based
MCF7 [2] = experiment: Antiproliferative activity against human MCF7 cells assessed as reduction in cell viability at 1 uM incubated for 48 hrs by MTT assay relative to control; assay type: functional; conditions: MCF7, 48 h
HepG2 = experiment: Cytotoxicity against human HepG2 cells assessed as reduction in cell viability incubated for 48 hrs by MTT assay; assay type: functional, cell-based; conditions: HepG2, 48 h
A549 [3] = experiment: Inhibition of Hsp90-Cdc37 interaction in human A549 cells assessed as decrease in Cdc37 protein level at 5 uM incubated for 6 hrs by immunoprecipitation assay; assay type: cell-based
[4] = target: RAC-alpha serine/threonine-protein kinase (Homo sapiens) (UniProt P31749); experiment: Inhibition of Akt phosphorylation in human A549 cells incubated for 8 hrs by Western blot analysis; assay type: cell-based
Sequence of RAC-alpha serine/threonine-protein kinase (Homo sapiens) (P31749 whole entry): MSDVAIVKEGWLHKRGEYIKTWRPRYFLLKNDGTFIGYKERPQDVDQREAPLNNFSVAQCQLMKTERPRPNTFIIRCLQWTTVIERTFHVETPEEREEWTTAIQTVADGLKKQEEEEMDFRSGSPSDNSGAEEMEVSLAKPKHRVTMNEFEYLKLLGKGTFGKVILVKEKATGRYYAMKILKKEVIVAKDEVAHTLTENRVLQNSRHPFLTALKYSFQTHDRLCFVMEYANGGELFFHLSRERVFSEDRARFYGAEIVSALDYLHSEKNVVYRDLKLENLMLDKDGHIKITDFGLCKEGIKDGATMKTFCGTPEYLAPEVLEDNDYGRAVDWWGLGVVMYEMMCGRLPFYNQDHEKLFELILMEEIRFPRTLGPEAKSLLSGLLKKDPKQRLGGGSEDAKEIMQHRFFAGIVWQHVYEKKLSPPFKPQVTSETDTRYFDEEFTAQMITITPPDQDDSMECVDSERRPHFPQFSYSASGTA

A549 [5] = experiment: Induction of apoptosis in human A549 cells assessed as decrease in Bcl-2 expression incubated for 8 hrs by western blot analysis; assay type: functional, cell-based
A549 [6] = experiment: Induction of apoptosis in human A549 cells assessed as increase in BAX expression incubated for 8 hrs by western blot analysis; assay type: functional, cell-based
A549 [7] = experiment: Cell cycle arrest in human A549 cells assessed as accumulation at S phase at 0.06 uM incubated for 12 hrs by propidium iodide staining based flow cytometry analysis (Rvb=38.46%); assay type: functional
A549 [8] = experiment: Cell cycle arrest in human A549 cells assessed as accumulation at G1 phase at 0.18 uM incubated for 12 hrs by propidium iodide staining based flow cytometry analysis (Rvb=49.49%); assay type: functional
A549 [9] = experiment: Cell cycle arrest in human A549 cells assessed as accumulation at S phase at 0.18 uM incubated for 12 hrs by propidium iodide staining based flow cytometry analysis (Rvb=38.46%); assay type: functional
A549 [10] = experiment: Cell cycle arrest in human A549 cells assessed as accumulation at G1 phase at 0.27 uM incubated for 12 hrs by propidium iodide staining based flow cytometry analysis (Rvb=49.49%); assay type: functional
A549 [11] = experiment: Cell cycle arrest in human A549 cells assessed as accumulation at G2 phase at 0.27 uM incubated for 12 hrs by propidium iodide staining based flow cytometry analysis (Rvb=11.7%); assay type: functional
A549 [12] = experiment: Cell cycle arrest in human A549 cells assessed as accumulation at G1 phase at 0.06 uM incubated for 24 hrs by propidium iodide staining based flow cytometry analysis (Rvb=55.3%); assay type: functional
A549 [13] = experiment: Cell cycle arrest in human A549 cells assessed as accumulation at S phase at 0.06 uM incubated for 24 hrs by propidium iodide staining based flow cytometry analysis (Rvb=27.61%); assay type: functional
A549 [14] = experiment: Cell cycle arrest in human A549 cells assessed as accumulation at G2 phase at 0.06 uM incubated for 24 hrs by propidium iodide staining based flow cytometry analysis (Rvb=18.01%); assay type: functional
A549 [15] = experiment: Cell cycle arrest in human A549 cells assessed as accumulation at S phase at 0.18 uM incubated for 24 hrs by propidium iodide staining based flow cytometry analysis (Rvb=27.61%); assay type: functional
A549 [16] = experiment: Cell cycle arrest in human A549 cells assessed as accumulation at G2 phase at 0.18 uM incubated for 24 hrs by propidium iodide staining based flow cytometry analysis (Rvb=18.01%); assay type: functional
A549 [17] = experiment: Cell cycle arrest in human A549 cells assessed as accumulation at G2 phase at 0.27 uM incubated for 24 hrs by propidium iodide staining based flow cytometry analysis (Rvb=18.01%); assay type: functional
A549 [18] = experiment: Induction of apoptosis in human A549 cells assessed as increase in cleaved PARP expression at 0.5 to 2 uM incubated for 8 hrs by western blot analysis; assay type: functional, cell-based
A549 [19] = experiment: Induction of apoptosis in human A549 cells assessed as late apoptotic cells at 0.2 uM incubated for 24 hrs by AnnexinV-FITC/propidium iodide/propidium iodide staining-based flow cytometric analysis (reference value: 4.2%); assay type: functional
A549 [20] = experiment: Induction of apoptosis in human A549 cells assessed as necrotic cells at 0.2 uM incubated for 24 hrs by AnnexinV-FITC/propidium iodide staining-based flow cytometric analysis (reference value: 3.6%); assay type: functional
A549 [21] = experiment: Induction of apoptosis in human A549 cells assessed as viable cells at 0.4 uM incubated for 24 hrs by AnnexinV-FITC/propidium iodide staining-based flow cytometric analysis (reference value: 88.1%); assay type: functional; conditions: A549, 24 h, read-out: Activity
A549 [22] = experiment: Induction of apoptosis in human A549 cells assessed as late apoptotic cells at 0.4 uM incubated for 24 hrs by AnnexinV-FITC/propidium iodide staining-based flow cytometric analysis (reference value: 4.2%); assay type: functional
A549 [23] = experiment: Induction of apoptosis in human A549 cells assessed as viable cells at 0.6 uM incubated for 24 hrs by AnnexinV-FITC/propidium iodide staining-based flow cytometric analysis (reference value: 88.1%); assay type: functional; conditions: A549, 24 h, read-out: Activity
A549 [24] = experiment: Induction of apoptosis in human A549 cells assessed as early apoptotic cells at 0.6 uM incubated for 24 hrs by AnnexinV-FITC/propidium iodide staining-based flow cytometric analysis (reference value: 4.1%); assay type: functional
A549 [25] = experiment: Induction of apoptosis in human A549 cells assessed as late apoptotic cells at 0.6 uM incubated for 24 hrs by AnnexinV-FITC/propidium iodide staining-based flow cytometric analysis (reference value: 4.2%); assay type: functional
A549 [26] = experiment: Induction of apoptosis in human A549 cells assessed as necrotic cells at 0.6 uM incubated for 24 hrs by AnnexinV-FITC/propidium iodide staining-based flow cytometric analysis (reference value: 3.6%); assay type: functional
A549 [27] = experiment: Induction of apoptosis in human A549 cells assessed as viable cells at 0.8 uM incubated for 24 hrs by AnnexinV-FITC/propidium iodide staining-based flow cytometric analysis (reference value: 88.1%); assay type: functional; conditions: A549, 24 h, read-out: Activity
A549 [28] = experiment: Induction of apoptosis in human A549 cells assessed as early apoptotic cells at 0.8 uM incubated for 24 hrs by AnnexinV-FITC/propidium iodide staining-based flow cytometric analysis (reference value: 4.1%); assay type: functional
A549 [29] = experiment: Induction of apoptosis in human A549 cells assessed as late apoptotic cells at 0.8 uM incubated for 24 hrs by AnnexinV-FITC/propidium iodide staining-based flow cytometric analysis (reference value: 4.2%); assay type: functional
A549 [30] = experiment: Induction of apoptosis in human A549 cells assessed as necrotic cells at 0.8 uM incubated for 24 hrs by AnnexinV-FITC/propidium iodide staining-based flow cytometric analysis (reference value: 3.6%); assay type: functional
A549 [31] = experiment: Induction of apoptosis in human A549 cells assessed as viable cells at 1.2 uM incubated for 24 hrs by AnnexinV-FITC/propidium iodide staining-based flow cytometric analysis (reference value: 88.1%); assay type: functional; conditions: A549, 24 h, read-out: Activity
A549 [32] = experiment: Induction of apoptosis in human A549 cells assessed as necrotic cells at 1.2 uM incubated for 24 hrs by AnnexinV-FITC/propidium iodide staining-based flow cytometric analysis (reference value: 3.6%); assay type: functional
A549 [33] = experiment: Induction of apoptosis in human A549 cells assessed as cell shrinkage at 0.06 to 0.18 uM incubated for 48 hrs by Hoechst 33342 staining-based fluorescence microscopy; assay type: functional
A549 [34] = experiment: cells; conditions: Homo sapiens, A549, 48 h
MCF7 [35] = experiment: cells; conditions: Homo sapiens, MCF7, 48 h

Question: How did the Activity (A549 [1]) turn out when COC(=O)/C=C\c1ccc(OC)c(OCCOC(=O)[C@]2(C)CC[C@]3(C)CC[C@]4(C)C5=CC=C6C(=CC(=O)C(O)=C6C)[C@]5(C)CC[C@@]4(C)[C@@H]3C2)c1 was run?
Answer: Dose-dependent effect

Question: What about the inhibition at 1 µM (MCF7 [2]) of the same compound?
Answer: 87.7%

Question: And the IC50 (HepG2)?
Answer: 260 nM

Question: What about the inhibition (A549 [3]) of the same compound?
Answer: Active

Question: What about the inhibition [4] of the same compound?
Answer: Dose-dependent effect

Question: And the Activity (A549 [5])?
Answer: Active

Question: What about the Activity (A549 [6]) of the same compound?
Answer: Active

Question: And the Activity (A549 [7])?
Answer: 36.32%

Question: And the Activity (A549 [8])?
Answer: 56.86%

Question: What about the Activity (A549 [9]) of the same compound?
Answer: 34.71%

Question: And the Activity (A549 [10])?
Answer: 61%

Question: And the Activity (A549 [11])?
Answer: 5.52%

Question: And the Activity (A549 [12])?
Answer: 53.02%

Question: And the Activity (A549 [13])?
Answer: 32.45%

Question: What about the Activity (A549 [14]) of the same compound?
Answer: 15.7%

Question: And the Activity (A549 [15])?
Answer: 29.7%

Question: And the Activity (A549 [16])?
Answer: 10.87%

Question: What about the Activity (A549 [17]) of the same compound?
Answer: 9.56%

Question: What about the Activity (A549 [18]) of the same compound?
Answer: Dose-dependent effect

Question: What about the Activity (A549 [19]) of the same compound?
Answer: 12.7%

Question: And the Activity (A549 [20])?
Answer: 4.4%

Question: What about the viability at 0.4 µM (A549 [21]) of the same compound?
Answer: 69.9%

Question: What about the Activity (A549 [22]) of the same compound?
Answer: 16.4%

Question: What about the viability at 0.6 µM (A549 [23]) of the same compound?
Answer: 50.6%

Question: What about the Activity (A549 [24]) of the same compound?
Answer: 17.3%

Question: And the Activity (A549 [25])?
Answer: 27.6%

Question: And the Activity (A549 [26])?
Answer: 4.5%

Question: And the viability at 0.8 µM (A549 [27])?
Answer: 33.7%

Question: What about the Activity (A549 [28]) of the same compound?
Answer: 16.1%

Question: What about the Activity (A549 [29]) of the same compound?
Answer: 43.3%

Question: What about the Activity (A549 [30]) of the same compound?
Answer: 6.9%

Question: What about the viability at 1.2 µM (A549 [31]) of the same compound?
Answer: 24.6%

Question: What about the Activity (A549 [32]) of the same compound?
Answer: 11.9%

Question: What about the Activity (A549 [33]) of the same compound?
Answer: Active

Question: What about the IC50 (A549 [34]) of the same compound?
Answer: 150 nM

Question: And the IC50 (MCF7 [35])?
Answer: 170 nM
